According to patent US9670172B2, “Heterocyclic compounds and methods of use” (Medivation Technologies, Inc., priority 2014, dated 2017):
Like-named read-outs stand apart in the source and are kept apart here.

Legend:
[1] = HepG2 cell viability by MTS; assay type: cell-based; settings: human, HepG2 cells, 3 days, DMEM without FBS, MTS, read-out: Average Viability (% Inhibition, n = 3)
Procedure: For viability measurements, HepG2 cells were seeded at 5,000 cells per well in 96-well plates in DMEM supplemented with 10% FBS. After 1 day in culture, cells were treated with compounds (20 μM & 5 μM) for 3 days in DMEM without FBS. Viability was measured by MTS. Treatment with compounds (20 μM & 5 μM) was carried out in medium without FBS, and viability was measured by MTS. […]

[2] = PK parameters for representative compounds (i.v. and p.o.); settings: in vivo; for half-life: read-out: Terminal t1/2 (converted)
Text: Standard PK parameters were collected in Mouse and Dog for Compound #37 in mouse (FIG. 4A) and dog (FIG. 4B).

[3] = system: SREBP2; experiment: SREBP2 cleavage in HEPG2 cells (Western blot normalized to actin); assay type: cell-based; settings: Homo sapiens, HepG2 cells, read-out: Average SREBP2 cleavage (% Inhibition, n = 3); for inhibition at 20 µM: 24 h, 1 day, DMEM without FBS
Procedure: Average SREBP2 cleavage in HEPG2 cells was measured in the presence of compounds disclosed in Table 1. HepG2 cells were seeded at 500,000 cells per well in 6-well plates in DMEM supplemented with 10% FBS. After 2 days, cells were treated with compounds (20 μM) for 1 day in DMEM without FBS. Western blots were normalized with respect to actin.
The results are shown in Table 3 as percent inhibition@20 μM, and in Table 4 as percent inhibition@5 μM.

## O=S(=O)(Nc1ccc(-c2csc(-c3ccnc(Cc4ccccc4)c3)n2)c(Cl)c1)C(F)(F)F [Compound 60, N-{4-[2-(2-benzylpyridin-4-yl)-1,3-thiazol-4-yl]-3-chlorophenyl}-1,1,1-trifluoromethanesulfonamide]
[1]
  cytotoxicity at 3 days, 20 μM: 100%
[2]; iv, i.v. @ 2 mg/kg
  AUC(0-t): 12.6 µM·h
  Cmax: 3.38 µM
  Vd: 1.28 L/kg
  clearance: 4.8 mL/min/kg
  half-life: 3.08 h
[2]; po, p.o. @ 10 mg/kg
  AUC(0-t): 57.1 µM·h
  Cmax: 6.58 µM
  Tmax: 4 h
  bioavailability: 90.2%
  half-life: > 8 h
[3]
  inhibition at 20 µM: 99%

## O=S(=O)(Nc1ccc(-c2csc(-c3ccnc(CCC(F)(F)F)c3)n2)c(Cl)c1)C(F)(F)F [Compound 64, N-(3-chloro-4-{2-[2-(3,3,3-trifluoropropyl)pyridin-4-yl]-1,3-thiazol-4-yl}phenyl)-1,1,1-trifluoromethanesulfonamide]
[1]
  cytotoxicity at 3 days, 20 μM: 100%
[2]; iv, i.v. @ 2 mg/kg
  AUC(0-t): 38.5 µM·h
  Cmax: 7.13 µM
  Vd: 1.95 L/kg
  clearance: 0.917 mL/min/kg
[2]; po, p.o. @ 10 mg/kg
  AUC(0-t): 526 µM·h
  Cmax: 32.1 µM
  Tmax: 24 h
  bioavailability: 273%
  half-life: > 8 h
[3]
  inhibition at 20 µM: 97%

## O=S(=O)(Nc1ccc(-c2csc(-c3ccnc(CC4CCCCC4)c3)n2)c(Cl)c1)C(F)(F)F [Compound 70, N-(3-chloro-4-{2-[2-(cyclohexylmethyl)pyridin-4-yl]-1,3-thiazol-4-yl}phenyl)-1,1,1-trifluoromethanesulfonamide]
[1]
  cytotoxicity at 3 days, 5 μM: 100%
[2]; iv, i.v. @ 2 mg/kg
  AUC(0-t): 2.2 µM·h
  Cmax: 4 µM
  Vd: 5.22 L/kg
  clearance: 54.7 mL/min/kg
  half-life: 1.1 h
[2]; po, p.o. @ 10 mg/kg
  AUC(0-t): 5.19 µM·h
  Cmax: 2.2 µM
  Tmax: 0.5 h
  bioavailability: 46.4%
  half-life: 1.04 h
[3]
  inhibition at 5 µM: 73%

## O=S(=O)(Nc1ccc(-c2csc(-c3cccc4ccccc34)n2)c(Cl)c1)C(F)(F)F [Compound 71, N-{3-chloro-4-[2-(naphthalen-1-yl)-1,3-thiazol-4-yl]phenyl}-1,1,1-trifluoromethanesulfonamide]
[1]
  cytotoxicity at 3 days, 5 μM: 97%
[2]; iv, i.v. @ 2 mg/kg
  AUC(0-t): 13.6 µM·h
  Cmax: 3.57 µM
  Vd: 1.27 L/kg
  clearance: 4.18 mL/min/kg
  half-life: 3.5 h
[2]; po, p.o. @ 10 mg/kg
  AUC(0-t): 51.5 µM·h
  Cmax: 7.57 µM
  Tmax: 4 h
  bioavailability: 75.9%
  half-life: > 8 h
[3]
  inhibition at 5 µM: 77%

## O=S(=O)(Nc1ccc(-c2csc(-c3ccc4cc[nH]c4c3)n2)c(Cl)c1)C(F)(F)F [Compound 72, N-{3-chloro-4-[2-(1H-indol-6-yl)-1,3-thiazol-4-yl]phenyl}-1,1,1-trifluoromethanesulfonamide]
[1]
  cytotoxicity at 3 days, 5 μM: 94%
[3]
  inhibition at 5 µM: 61%

## O=S(=O)(Nc1ccc(-c2csc(-c3ccc(C(F)(F)F)c(OCc4ccccc4)c3)n2)c(Cl)c1)C(F)(F)F [Compound 73, N-(4-{2-[3-(benzyloxy)-4-(trifluoromethyl)phenyl]-1,3-thiazol-4-yl}-3-chlorophenyl)-1,1,1-trifluoromethanesulfonamide]
[1]
  cytotoxicity at 3 days, 5 μM: 99%
[3]
  inhibition at 5 µM: 64%

## O=S(=O)(Nc1ccc(-c2csc(-c3ccccc3-c3ccccc3)n2)c(Cl)c1)C(F)(F)F [Compound 74, N-{3-chloro-4-[2-(2-phenylphenyl)-1,3-thiazol-4-yl]phenyl}-1,1,1-trifluoromethanesulfonamide]
[1]
  cytotoxicity at 3 days, 5 μM: 97%
[3]
  inhibition at 5 µM: 76%

## O=S(=O)(Nc1ccc(-c2csc(-c3cncc4ccccc34)n2)c(Cl)c1)C(F)(F)F [Compound 75, N-{3-chloro-4-[2-(isoquinolin-4-yl)-1,3-thiazol-4-yl]phenyl}-1,1,1-trifluoromethanesulfonamide]
[1]
  cytotoxicity at 3 days, 5 μM: 88%
[3]
  inhibition at 5 µM: 55%

## CN1CCN(c2cc(-c3nc(-c4ccc(NS(=O)(=O)C(F)(F)F)cc4Cl)cs3)ccn2)CC1 [Compound 76, N-(3-chloro-4-{2-[2-(4-methylpiperazin-1-yl)pyridin-4-yl]-1,3-thiazol-4-yl}phenyl)-1,1,1-trifluoromethanesulfonamide]
[1]
  cytotoxicity at 3 days, 5 μM: 3%
[3]
  inhibition at 5 µM: 7%

## Cc1noc(C)c1-c1nc(-c2ccc(NS(=O)(=O)C(F)(F)F)cc2Cl)cs1 [Compound 77, N-{3-chloro-4-[2-(dimethyl-1,2-oxazol-4-yl)-1,3-thiazol-4-yl]phenyl}-1,1,1-trifluoromethanesulfonamide]
[1]
  cytotoxicity at 3 days, 5 μM: 41%
[3]
  inhibition at 5 µM: 56%

## Cc1ccc(S(=O)(=O)Nc2cccc(-c3nc(-c4ccc(NS(=O)(=O)C(F)(F)F)cc4Cl)cs3)c2)cc1 [Compound 78, N-{3-[4-(2-chloro-4-trifluoromethanesulfonamidophenyl)-1,3-thiazol-2-yl]phenyl}-4-methylbenzene-1-sulfonamide]
[1]
  cytotoxicity at 3 days, 5 μM: 87%
[3]
  inhibition at 5 µM: 38%

## COc1ccc(-c2nc(-c3ccc(NS(=O)(=O)C(F)(F)F)cc3Cl)cs2)cc1OC [Compound 79, N-{3-chloro-4-[2-(3,4-dimethoxyphenyl)-1,3-thiazol-4-yl]phenyl}-1,1,1-trifluoromethanesulfonamide]
[1]
  cytotoxicity at 3 days, 5 μM: 74%
[3]
  inhibition at 5 µM: 65%

## O=S(=O)(Nc1ccc(-c2csc(-c3ccc(F)cc3C(F)(F)F)n2)c(Cl)c1)C(F)(F)F [Compound 81, N-[3-chloro-4-[2-[4-fluoro-2-(trifluoromethyl)phenyl]thiazol-4-yl]phenyl]-1,1,1-trifluoro-methanesulfonamide]
[1]
  cytotoxicity at 3 days, 5 μM: 88%
[3]
  inhibition at 5 µM: 44%

## O=S(=O)(Nc1ccc(-c2csc(-c3cccc(CO)c3)n2)c(Cl)c1)C(F)(F)F [Compound 83, N-(3-chloro-4-{2-[3-(hydroxymethyl)phenyl]-1,3-thiazol-4-yl}phenyl)-1,1,1-trifluoromethanesulfonamide]
[1]
  cytotoxicity at 3 days, 5 μM: 0%
[3]
  inhibition at 5 µM: 2%

## O=S(=O)(Nc1ccc(-c2csc(-c3ccccc3CO)n2)c(Cl)c1)C(F)(F)F [Compound 84, N-(3-chloro-4-{2-[2-(hydroxymethyl)phenyl]-1,3-thiazol-4-yl}phenyl)-1,1,1-trifluoromethanesulfonamide]
[1]
  cytotoxicity at 3 days, 5 μM: 18%
[3]
  inhibition at 5 µM: 20%

## Cc1cnccc1-c1nc(-c2ccc(NS(=O)(=O)C(F)(F)F)cc2Cl)cs1 [Compound 86, N-{3-chloro-4-[2-(3-methylpyridin-4-yl)-1,3-thiazol-4-yl]phenyl}-1,1,1-trifluoromethanesulfonamide]
[1]
  cytotoxicity at 3 days, 5 μM: 27%
[3]
  inhibition at 5 µM: 54%

## O=S(=O)(Nc1ccc(-c2csc(-c3ccnc4[nH]ccc34)n2)c(Cl)c1)C(F)(F)F [Compound 87, N-[3-chloro-4-(2-{1H-pyrrolo[2,3-b]pyridin-4-yl}-1,3-thiazol-4-yl)phenyl]-1,1,1-trifluoromethanesulfonamide]
[1]
  cytotoxicity at 3 days, 5 μM: 9%
[3]
  inhibition at 5 µM: 50%

## O=S(=O)(Nc1ccc(-c2csc(-c3csc4ccccc34)n2)c(Cl)c1)C(F)(F)F [Compound 90, N-{4-[2-(1-benzothiophen-3-yl)-1,3-thiazol-4-yl]-3-chlorophenyl}-1,1,1-trifluoromethanesulfonamide]
[1]
  cytotoxicity at 3 days, 5 μM: 99%
[3]
  inhibition at 5 µM: 64%

## O=S(=O)(Nc1ccc(-c2csc(-c3ccc(F)cc3CN3CCCC3)n2)c(Cl)c1)C(F)(F)F [Compound 91, N-(3-chloro-4-{2-[4-fluoro-2-(pyrrolidin-1-ylmethyl)phenyl]-1,3-thiazol-4-yl}phenyl)-1,1,1-trifluoromethanesulfonamide]
[1]
  cytotoxicity at 3 days, 5 μM: 4%
[3]
  inhibition at 5 µM: 16%

## O=S(=O)(Nc1ccc(-c2csc(-c3ccnc(NC4CCCC4)c3)n2)c(Cl)c1)C(F)(F)F [Compound 92, N-(3-chloro-4-{2-[2-(cyclopentylamino)pyridin-4-yl]-1,3-thiazol-4-yl}phenyl)-1,1,1-trifluoromethanesulfonamide]
[1]
  cytotoxicity at 3 days, 5 μM: 94%
[3]
  inhibition at 5 µM: 59%

## O=S(=O)(Nc1ccc(-c2csc(-c3c[nH]c4ccccc34)n2)c(Cl)c1)C(F)(F)F [Compound 93, N-{3-chloro-4-[2-(1H-indol-3-yl)-1,3-thiazol-4-yl]phenyl}-1,1,1-trifluoromethanesulfonamide]
[1]
  cytotoxicity at 3 days, 5 μM: 82%
[3]
  inhibition at 5 µM: 28%

## O=S(=O)(Nc1ccc(-c2csc(-c3ccnc4ccccc34)n2)c(Cl)c1)C(F)(F)F [Compound 94, N-[3-chloro-4-[2-(4-quinolyl)thiazol-4-yl]phenyl]-1,1,1-trifluoro-methanesulfonamide]
[1]
  cytotoxicity at 3 days, 5 μM: 84%
[3]
  inhibition at 5 µM: 35%

## O=S(=O)(Nc1ccc(-c2csc(-c3ccnc(Cl)c3)n2)c(Cl)c1)C(F)(F)F [Compound 95, N-(3-chloro-4-(2-(2-chloropyridin-4-yl)thiazol-4-yl)phenyl)-1,1,1-trifluoromethanesulfonamide]
[1]
  cytotoxicity at 3 days, 5 μM: 86%
[3]
  inhibition at 5 µM: 39%
